The source of these data is patent EP4644384A1 (Shanghai Lichun Biotech Co., Ltd., priority 2023, dated 2024).

The experiment deals with T1, CYP11A1 (Homo sapiens, UniProt P05108).
T1 construct: host or cells: NCI-H295R human adrenocortical cancer cells
T1 sequence (P05108 40-521): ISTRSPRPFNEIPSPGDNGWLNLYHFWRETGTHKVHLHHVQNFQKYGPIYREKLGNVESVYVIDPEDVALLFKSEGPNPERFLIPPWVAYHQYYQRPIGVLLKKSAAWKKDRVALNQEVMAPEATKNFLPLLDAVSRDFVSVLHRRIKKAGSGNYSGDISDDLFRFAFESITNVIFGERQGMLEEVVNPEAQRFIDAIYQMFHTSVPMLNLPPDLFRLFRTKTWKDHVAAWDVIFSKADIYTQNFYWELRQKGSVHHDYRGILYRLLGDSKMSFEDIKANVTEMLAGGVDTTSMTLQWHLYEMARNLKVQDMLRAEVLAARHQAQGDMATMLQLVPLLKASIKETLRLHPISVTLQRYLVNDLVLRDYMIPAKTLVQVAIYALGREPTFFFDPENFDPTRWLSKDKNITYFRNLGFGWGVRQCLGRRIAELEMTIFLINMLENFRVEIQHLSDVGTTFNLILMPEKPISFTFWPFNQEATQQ
Briefly: Pregnenolone synthesis inhibition in NCI-H295R cells (pregnenolone ELISA of culture supernatant). The class given is cell-based. Particulars: 24 hours incubation, pregnenolone in culture supernatant by ELISA. An excerpt: Conversion of cholesterol into pregnenolone is a first rate-limiting step in the synthesis of all steroid hormones in vertebrates. This conversion reaction involves a two-step continuous monooxygenation reaction catalyzed by the unique cytochrome P450scc (CYP11A) to produce C22-hydroxycholesterol and C20,C22-dihydroxycholesterol in order, followed by CYP11A1-catalyzed breakage of a C20-C22 carbon-carbon single bond in C20,C22-dihydroxycholesterol to produce one molecule of pregnenolone and one molecule of 4-methylvaleraldehyde. Therefore, the inhibitory effect of a compound on CYP11A1 was identified by detecting the ability of the compound to inhibit pregnenolone synthesis.
The ability of different compounds to inhibit pregnenolone biosynthesis was determined by detecting the concentration of pregnenolone (Abnova pregnenolone ELISA kit, KA1912) using enzyme-linked immunosorbent assay (ELISA), so as to detect the ability of the compounds to inhibit CYP11A1. […] In order to determine the half-maximal inhibitory concentrations (IC50) of CYP11A1 inhibition by different compounds, the compounds were added during NCI-H295R cell culture, and after incubation, the concentration of pregnenolone in the culture supernatant was determined.
95 µl of NCI-H295R cells were taken and cultured overnight with a specialized cell culture medium (Procell, CM-0399) in a 96-well culture plate in a cell incubator at 37°C and 5% CO2. 5 µl/well of a DMSO (Sigma, D8418) solution of the compounds to be tested at different concentrations was then added, followed by continued incubation for 24 hours. The final concentrations of the compounds to be tested were 1000 nM, 333.33 nM, 111.11 nM, 37.04 nM, 12.35 nM, 4.12 nM, 1.37 nM, 0.46 nM, and 0 nM. After the incubation was complete, the cells were centrifuged, 80 µl/well of the cell culture supernatant was obtained and 1 : 8 diluted with the cell culture medium, and the concentration of pregnenolone therein was then determined by ELISA method. During ELISA detection, a pregnenolone standard was used to generate a standard curve. The experiment was carried out with replicate wells. The ELISA well plate had been coated with an anti-pregnenolone rabbit polyclonal antibody. In ELISA plate strips, 50 µl/well of the diluted culture supernatant or standard solution or reference substance was added, followed by 100 µl of a pregnenolone-HRP complex solution, and the plate was incubated for 1 hour at room temperature on a plate shaker (QILINBEIER, QB-9002) at 200 rpm. Then, the plate was washed three times with a cleaning solution, with 300 µl each time, and patted dry on absorbent paper. 150 µl of a TMB substrate was added. The plate was incubated on the plate shaker for 10-15 minutes at room temperature, and 50 µl of a stop solution was then added. The absorbance was measured at 450 nm by a microplate reader (PerkinElmer, 2105). The IC50 value was calculated by using GraphPad Prism software. [formula]
On the technique in general: ELISA stands for enzyme-linked immunosorbent assay.
As usually defined, the IC50 is the concentration that gives 50% inhibition. High values mean a need for much substance, low ones inhibition by little substance. In the case of `CS(=O)(=O)N1CCC(COc2ccc(CN3Cc4ccccc4C3)[nH]c2=O)CC1` [Compound 2, 6-(isoindolin-2-ylmethyl)-3-((1-(methylsulfonyl)piperidine-4-yl)methoxy)pyridin-2(1H)-one], the IC50 is 222 nM.

`Cn1c(CN2Cc3ccccc3C2)ccc(OCC2CCN(S(=O)(=O)C3CC3)CC2)c1=O` [Compound 3, 3-((1-(cyclopropylsulfonyl)piperidine-4-yl)methoxy)-6-(isoindolin-2-ylmethyl)-1-methylpyridin-2(1H)-one] registered an IC50 of 2.25 nM. With `CN(C)S(=O)(=O)N1CCC(COc2ccc(CN3Cc4ccccc4C3)n(C)c2=O)CC1` [Compound 4, 4-(((6-(isoindolin-2-ylmethyl)-1-methyl-2-oxo-1,2-dihydropyridin-3-yl)oxy)methyl)-N,N-dimethylpiperidine-1-sulfonamide] the figure was 1.74 nM; with `Cn1c(CN2Cc3ccc(F)cc3C2)ccc(OCC2CCN(S(C)(=O)=O)CC2)c1=O` [Compound 5, 6-((5-fluoroisoindolin-2-yl)methyl)-1-methyl-3-((1-(methylsulfonyl)piperidine-4-yl)methoxy)pyridin-2(1H)-one], 8.49 nM; with `Cn1c(CN2Cc3ccccc3C2)ccc(OCC2CCN(S(=O)(=O)C3COC3)CC2)c1=O` [Compound 6], 1.94 nM.

In the case of `CC(=O)N1CCC(COc2ccc(CN3Cc4ccccc4C3)n(C)c2=O)CC1` [Compound 7, 3-((1-acetylpiperidine-4-yl)methoxy)-6-(isoindolin-2-ylmethyl)-1-methylpyridin-2(1H)-one], half-maximal inhibition (IC50) was put at 9.34 nM. Regarding `CN(C)S(=O)(=O)N1CCC(COc2ccc(CN3Cc4ccc(F)cc4C3)n(C)c2=O)CC1` [Compound 11, 4-(((6-((5-fluoroisoindolin-2-yl)methyl)-1-methyl-2-oxo-1,2-dihydropyridin-3-yl)oxy)methyl)-N,N-dimethylpiperidine-1-sulfonamide], the 50% inhibitory concentration (IC50) was 1.98 nM. In turn, `Cn1c(CN2Cc3ccc(F)cc3C2)ccc(OCC2CCN(S(=O)(=O)C3COC3)CC2)c1=O` [Compound 12, 6-((5-fluoroisoindolin-2-yl)methyl)-1-methyl-3-((1-(oxetan-3-ylsulfonyl)piperidine-4-yl)methoxy)pyridin-2(1H)-one] displayed an IC50 of 3.57 nM. On to `Cn1c(CN2Cc3ccc(C(F)(F)F)cc3C2)ccc(OCC2CCN(S(C)(=O)=O)CC2)c1=O` [Compound 13, 1-methyl-3-((1-(methylsulfonyl)piperidine-4-yl)methoxy)-6-((5-(trifluoromethyl)isoindolin-2-yl)methyl)pyridin-2(1H)-one], for which the IC50 is 12 nM. With `[2H]C([2H])([2H])n1c(CN2Cc3ccc(C(F)(F)F)cc3C2)ccc(OCC2CCN(S(C)(=O)=O)CC2)c1=O` [Compound 14, 1-(methyl-d3)-3-((1-(methylsulfonyl)piperidine-4-yl)methoxy)-6-((5-(trifluoromethyl)isoindolin-2-yl)methyl)pyridin-2(1H)-one] the figure was 4.75 nM; with `[2H]C([2H])([2H])n1c(CN2Cc3ccc(F)cc3C2)ccc(OCC2CCN(S(=O)(=O)C3COC3)CC2)c1=O` [Compound 15, 6-((5-fluoroisoindolin-2-yl)methyl)-1-(methyl-d3)-3-((1-(oxetan-3-ylsulfonyl)piperidine-4-yl)methoxy)pyridin-2(1H)-one], 3.99 nM; with `[2H]C([2H])([2H])n1c(CN2Cc3ccccc3C2)ccc(OCC2CCN(S(C)(=O)=O)CC2)c1=O` [Compound 17, 6-(isoindolin-2-ylmethyl)-1-(methyl-d3)-3-((1-(methylsulfonyl)piperidine-4-yl)methoxy)pyridin-2(1H)-one], 3.76 nM.

For `[2H]C([2H])([2H])n1c(CN2Cc3ccc(C(F)(F)F)cc3C2)ccc(OCC2CCN(S(=O)(=O)C3CC3)CC2)c1=O` [Compound 19, 3-((1-(cyclopropylsulfonyl)piperidine-4-yl)methoxy)-1-(methyl-d3)-6-((5-(trifluoromethyl)isoindolin-2-yl)methyl)pyridin-2(1H)-one], the concentration for half-maximal inhibition (IC50) turned out to be 7.8 nM. The figure for `[2H]C([2H])([2H])n1c(CN2Cc3ccc(F)cc3C2)ccc(OCC2CCN(S(=O)(=O)C3CC3)CC2)c1=O` [Compound 20] is 1.94 nM. The figure for `Cn1c(CN2Cc3ccc(C(F)(F)F)cc3C2)ccc(OCC2CCN(S(=O)(=O)C3CC3)CC2)c1=O` [Compound 21, 3-((1-(cyclopropylsulfonyl)piperidine-4-methyl)methoxy)-1-methyl-6-((5-(trifluoromethyl)isoindolin-2-yl)methyl)pyridin-2(1H)-one] is 2.21 nM; for `CN(C)S(=O)(=O)N1CCC(COc2ccc(CN3Cc4ccc(C(F)(F)F)cc4C3)n(C)c2=O)CC1` [Compound 22, N,N-dimethyl-4-(((1-methyl-2-oxo-6-((5-(trifluoromethyl)isoindolin-2-yl)methyl)-1,2-dihydropyridin-3-yl)oxy)methyl)piperidine-1-sulfonamide] it is 8.61 nM; for `Cn1c(CN2Cc3ccc(C(F)(F)F)cc3C2)ccc(OCC2CCN(S(=O)(=O)C3COC3)CC2)c1=O` [Compound 23, 1-methyl-3-((1-(oxetan-3-ylsulfonyl)piperidine-4-yl)methoxy)-6-((5-(trifluoromethyl)isoindolin-2-yl)methyl)pyridin-2(1H)-one] it is 3.57 nM. The molecule `[2H]C([2H])([2H])n1c(CN2Cc3ccc(F)cc3C2)ccc(OCC2CCN(S(C)(=O)=O)CC2)c1=O` [Compound 24, 6-((5-fluoroisoindolin-2-yl)methyl)-1-(methyl-d3)-3-((1-(methylsulfonyl)piperidine-4-yl)methoxy)pyridin-2(1H)-one] showed a half-inhibitory concentration (IC50) of 4.86 nM. Molecule `CCn1c(CN2Cc3ccccc3C2)ccc(OCC2CCN(S(=O)(=O)C(F)(F)F)CC2)c1=O` [Compound 27, 1-ethyl-6-(isoindolin-2-ylmethyl)-3-((1-((trifluoromethyl)sulfonyl)piperidine-4-yl)methoxy)pyridin-2(1H)-one] registered an IC50 of 0.136 nM. With `CCn1c(CN2Cc3ccccc3C2)ccc(OCC2CCN(S(=O)(=O)NC)CC2)c1=O` [Compound 29, 4-(((1-ethyl-6-(isoindolin-2-ylmethyl)-2-oxo-1,2-dihydropyridin-3-yl)oxy)methyl)-N-methylpiperidine-1-sulfonamide] the figure was 14.8 nM.
